In ChEMBL document CHEMBL5338820, “Discovery and Design of Novel Cyclic Peptides as Specific Inhibitors Targeting CCN2 and Disrupting CCN2/EGFR Interaction for Kidney Fibrosis Treatment” (J Med Chem, 2023) one finds inhibition data, which are given here for 9 compounds.

Broadly, the inhibition is the relative decrease from the control value, in per cent. Read a low inhibition as little suppression.

The target of test [1] is T1, CCN2-EGFR (Homo sapiens) (UniProt P00533+P29279). Put plainly: Inhibition of His-tagged full length human CCN2 CT domain/human Fc-tagged EGFR protein-protein interaction using TMB as chromogenic substrate at 100 uM incubated for 140 mins by microplate reader assay relative to control.
Test [2] has as its target T1, CCN2-EGFR (Homo sapiens). Put plainly: Inhibition of His-tagged full length human CCN2 FL domain/human Fc-tagged EGFR protein-protein interaction using TMB as chromogenic substrate at 100 uM incubated for 140 mins by microplate reader assay relative to control.

Peptide text beside a SMILES is read from it.

T1 sequence (P00533 whole entry, looked up, the tested form may be a part): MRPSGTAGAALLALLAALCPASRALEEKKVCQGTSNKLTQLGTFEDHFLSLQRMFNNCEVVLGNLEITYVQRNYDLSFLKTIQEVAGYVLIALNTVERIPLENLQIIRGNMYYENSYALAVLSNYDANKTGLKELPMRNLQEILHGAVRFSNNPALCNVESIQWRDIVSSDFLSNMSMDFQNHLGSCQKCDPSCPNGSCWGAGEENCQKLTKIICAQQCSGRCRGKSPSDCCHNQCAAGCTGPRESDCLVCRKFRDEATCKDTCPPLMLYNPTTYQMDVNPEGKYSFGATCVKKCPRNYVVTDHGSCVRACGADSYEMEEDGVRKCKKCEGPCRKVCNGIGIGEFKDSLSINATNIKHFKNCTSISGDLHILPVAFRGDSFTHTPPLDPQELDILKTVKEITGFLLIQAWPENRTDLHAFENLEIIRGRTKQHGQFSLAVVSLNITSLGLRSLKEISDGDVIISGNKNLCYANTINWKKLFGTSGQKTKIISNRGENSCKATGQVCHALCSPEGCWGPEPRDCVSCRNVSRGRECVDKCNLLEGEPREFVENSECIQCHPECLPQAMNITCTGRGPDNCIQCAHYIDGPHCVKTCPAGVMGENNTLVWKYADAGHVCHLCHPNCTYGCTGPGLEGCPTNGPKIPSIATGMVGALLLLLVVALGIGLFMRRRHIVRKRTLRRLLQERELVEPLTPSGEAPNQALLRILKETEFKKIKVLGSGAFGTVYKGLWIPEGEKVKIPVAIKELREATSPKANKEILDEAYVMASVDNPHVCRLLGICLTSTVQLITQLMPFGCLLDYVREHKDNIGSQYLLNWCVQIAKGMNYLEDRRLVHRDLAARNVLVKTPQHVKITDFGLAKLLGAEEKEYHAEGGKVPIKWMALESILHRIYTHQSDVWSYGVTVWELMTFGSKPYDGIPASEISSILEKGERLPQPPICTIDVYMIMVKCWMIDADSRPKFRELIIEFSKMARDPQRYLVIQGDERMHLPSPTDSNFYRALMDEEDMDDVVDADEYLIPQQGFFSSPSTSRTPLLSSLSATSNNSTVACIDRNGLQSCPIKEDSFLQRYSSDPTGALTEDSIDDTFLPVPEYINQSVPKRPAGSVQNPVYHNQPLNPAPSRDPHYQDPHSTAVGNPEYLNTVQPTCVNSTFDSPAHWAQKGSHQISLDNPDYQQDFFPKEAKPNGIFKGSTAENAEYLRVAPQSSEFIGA
T1 sequence (P29279 whole entry, looked up, the tested form may be a part): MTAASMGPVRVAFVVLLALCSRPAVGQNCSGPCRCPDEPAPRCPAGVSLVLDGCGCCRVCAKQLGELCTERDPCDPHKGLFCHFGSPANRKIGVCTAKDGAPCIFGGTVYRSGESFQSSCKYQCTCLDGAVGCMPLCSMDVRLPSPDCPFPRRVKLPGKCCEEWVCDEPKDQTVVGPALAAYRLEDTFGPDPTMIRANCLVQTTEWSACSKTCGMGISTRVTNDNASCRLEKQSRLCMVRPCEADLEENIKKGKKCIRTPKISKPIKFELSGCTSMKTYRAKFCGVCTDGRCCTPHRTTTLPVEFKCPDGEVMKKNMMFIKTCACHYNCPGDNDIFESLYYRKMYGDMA

As to `C[C@@H](O)[C@H](N)C(=O)N[C@@H](Cc1c[nH]cn1)C(=O)N[C@@H](CCC(N)=O)C(=O)N[C@@H](CCCNC(=N)N)C(=O)N1CCC[C@H]1C(=O)N[C@@H](Cc1c[nH]c2ccccc12)C(=O)N[C@H](C(N)=O)[C@@H](C)O` (H-THQRPWT-NH2), the inhibition came to 10.9% in test [1] and 5.1% in test [2].

With `CC(C)C[C@H](NC(=O)[C@@H](N)CC(C)C)C(=O)N[C@@H](C)C(=O)N[C@@H](CC(=O)O)C(=O)N[C@H](C(=O)N[C@H](C(=O)N[C@@H](C)C(=O)N[C@@H](Cc1c[nH]cn1)C(=O)N[C@@H](CCCNC(=N)N)C(=O)N1CCC[C@H]1C(=O)N[C@@H](Cc1c[nH]c2ccccc12)C(=O)N[C@H](C(N)=O)[C@@H](C)O)[C@@H](C)O)[C@@H](C)O` (H-LLADTTAHRPWT-NH2), the inhibition in test [1] was 70.5%; in test [2], 59.6%.

In the case of `CC(C)C[C@H](NC(=O)[C@@H](N)CC(C)C)C(=O)N[C@@H](C)C(=O)N[C@@H](CC(=O)O)C(=O)N[C@H](C(=O)N[C@H](C(=O)N[C@@H](Cc1c[nH]cn1)C(=O)N[C@@H](C)C(=O)N[C@@H](CCCNC(=N)N)C(=O)N1CCC[C@H]1C(=O)N[C@@H](Cc1c[nH]c2ccccc12)C(=O)N[C@H](C(N)=O)[C@@H](C)O)[C@@H](C)O)[C@@H](C)O` (H-LLADTTHARPWT-NH2), the inhibition in test [1] amounted to 65.8%; in test [2], 48.6%.

With `C[C@@H](O)[C@H](N)C(=O)N[C@@H](Cc1c[nH]cn1)C(=O)N[C@@H](Cc1c[nH]cn1)C(=O)N[C@@H](CCCNC(=N)N)C(=O)N[C@@H](CCC(N)=O)C(=O)N[C@@H](Cc1c[nH]c2ccccc12)C(=O)N[C@H](C(N)=O)[C@@H](C)O` (H-THHRQWT-NH2), the inhibition is 1.2% in test [1] and 4.5% in test [2].

Take `CC(C)C[C@H](N)C(=O)N[C@@H](C)C(=O)N[C@@H](C)C(=O)N[C@@H](CC(=O)O)C(=O)N[C@H](C(=O)N[C@H](C(=O)N[C@@H](Cc1c[nH]cn1)C(=O)N[C@@H](Cc1c[nH]cn1)C(=O)N[C@@H](CCCNC(=N)N)C(=O)N1CCC[C@H]1C(=O)N[C@@H](Cc1c[nH]c2ccccc12)C(=O)N[C@H](C(N)=O)[C@@H](C)O)[C@@H](C)O)[C@@H](C)O` (H-LAADTTHHRPWT-NH2): the inhibition in test [1] amounted to 69.5%; in test [2], 62.8%.

For `CC(C)C[C@H](NC(=O)[C@@H](N)CC(C)C)C(=O)N[C@@H](C)C(=O)N[C@@H](CC(=O)O)C(=O)N[C@H](C(=O)N[C@H](C(=O)N[C@@H](Cc1c[nH]cn1)C(=O)N[C@@H](Cc1c[nH]cn1)C(=O)N[C@@H](CCCNC(=N)N)C(=O)N[C@@H](C)C(=O)N[C@@H](Cc1c[nH]c2ccccc12)C(=O)N[C@H](C(N)=O)[C@@H](C)O)[C@@H](C)O)[C@@H](C)O` (H-LLADTTHHRAWT-NH2), the inhibition in test [1] was found to be 65.6%; in test [2] it was 56.5%.

Consider `CC(C)C[C@H](NC(=O)[C@@H](N)CC(C)C)C(=O)N[C@@H](C)C(=O)N[C@@H](CC(=O)O)C(=O)N[C@H](C(=O)N[C@@H](C)C(=O)N[C@@H](Cc1c[nH]cn1)C(=O)N[C@@H](Cc1c[nH]cn1)C(=O)N[C@@H](CCCNC(=N)N)C(=O)N1CCC[C@H]1C(=O)N[C@@H](Cc1c[nH]c2ccccc12)C(=O)N[C@H](C(N)=O)[C@@H](C)O)[C@@H](C)O` (H-LLADTAHHRPWT-NH2), for which the inhibition was determined as 44.1% in test [1] and 36.5% in test [2].

In the case of `C[C@@H](O)[C@@H]1NC(=O)[C@H](Cc2c[nH]c3ccccc23)NC(=O)[C@@H]2CCCN2C(=O)[C@H](CCCNC(=N)N)NC(=O)[C@H](CCCCN)NC(=O)[C@H](Cc2c[nH]cn2)NC(=O)[C@H]([C@@H](C)O)NC1=O` (cyclo(HKRPWTT)), the inhibition is 13.2% in test [1] and 17.4% in test [2].

For the compound `CC(C)C[C@H](NC(=O)[C@@H](N)CC(C)C)C(=O)N[C@@H](C)C(=O)N[C@@H](CC(=O)O)C(=O)N[C@H](C(=O)N[C@H](C(=O)N[C@@H](Cc1c[nH]cn1)C(=O)N[C@@H](Cc1c[nH]cn1)C(=O)N[C@@H](CCCNC(=N)N)C(=O)N1CCC[C@H]1C(=O)N[C@@H](Cc1c[nH]c2ccccc12)C(=O)N[C@@H](C)C(N)=O)[C@@H](C)O)[C@@H](C)O` (H-LLADTTHHRPWA-NH2), the inhibition came out at 14.2% in test [1] and 13.5% in test [2].
